Data on two compounds can be found in patent US6949574B2 (Bristol-Myers Squibb Company, priority 2002, dated 2005).

Data set [1] deals with acute thermal pain behavior. The format is in vivo, rat. An excerpt: FIG. 2 illustrates results from a rat Hargreaves test used for measuring acute thermal pain.
Data are mean+/−s.e.m. (n=8 per group). **p<0.01 Dunnett's Test, compared to vehicle control.

The test system of data set [2] is carrageenan-induced edema. The data set can be described thus: Paw edema model (inflammation-induced edema), plethysmometry. It counts as in vivo, rat. An excerpt: PAW EDEMA MODEL (Inflammation-induced Edema) The effects of Example 5 on carrageenan-induced edema were examined in a quantitative manner (plethysmometry).
For data set [3], the system named is thermal hyperalgesia induced by paw carrageenan. The data set can be described thus: Carrageenan-induced thermal hyperalgesia (chronic inflammatory pain). The format is in vivo, rat. From the text:
FIG. 1 illustrates results from a rat carrageen-induced thermal hypergesia model used for measuring chronic inflammatory pain.
The following in vivo pain models below utilized Example 5. […] Paw carrageenan injection (⋄, 0:45 hr, Carr) produced strong thermal hyperalgesia as evidenced by the short escape latencies seen in vehicle treated rats (⋄, 2:15 hr, Carr) as compared to the long baseline latencies (0:00 hr). […] Data are mean+/−s.e.m. (n=8 per group). *p<0.05, **p<0.01 Tukey's HSD, compared to vehicle.

A further data set concerns the target T1, human FAAH (Homo sapiens, UniProt O00519).
T1 construct: expressed in transfected cells; host or cells: H4 cells (H4-FAAH, Geneticin-selected); crude membrane homogenates
T1 sequence (O00519 1-579): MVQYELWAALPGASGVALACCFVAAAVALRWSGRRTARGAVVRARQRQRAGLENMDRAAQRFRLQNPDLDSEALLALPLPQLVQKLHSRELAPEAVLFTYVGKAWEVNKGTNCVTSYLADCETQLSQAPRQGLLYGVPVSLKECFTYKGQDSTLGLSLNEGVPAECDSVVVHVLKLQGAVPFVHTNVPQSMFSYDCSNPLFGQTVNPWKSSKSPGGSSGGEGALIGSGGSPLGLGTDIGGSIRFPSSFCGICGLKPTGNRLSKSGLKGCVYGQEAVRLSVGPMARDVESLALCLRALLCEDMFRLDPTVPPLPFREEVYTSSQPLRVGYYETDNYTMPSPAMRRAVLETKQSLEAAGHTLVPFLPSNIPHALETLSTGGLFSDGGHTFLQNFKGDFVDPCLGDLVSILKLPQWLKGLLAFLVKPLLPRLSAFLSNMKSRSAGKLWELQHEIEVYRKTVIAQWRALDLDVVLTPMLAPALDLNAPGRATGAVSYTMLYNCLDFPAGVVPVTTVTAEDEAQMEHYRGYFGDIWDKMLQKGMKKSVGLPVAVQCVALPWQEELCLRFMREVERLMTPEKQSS
The data set can be described thus: FAAH activity in membrane homogenates of H4-FAAH cells, [3H]-anandamide hydrolysis. As to conditions: H4-FAAH cell membranes, 10 μM anandamide, room temperature, one hour; read-out: IC50. It counts as biochemical. A digest of the protocol: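 Membranes (240 ng protein) from H4 cells expressing transfected human FAAH, incubated 1 h at room temperature in 125 mM Tris-Cl, pH 9.0, with 1.67 nM [3H]-anandamide plus 10 μM anandamide. Aqueous [3H]-ethanolamine counted after methanol/dichloroethane extraction; background set with 10 μM ATFMK. IC50 from four-parameter logistic fit.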

Read-outs that look alike come from different tables or passages of the source. Bounds are passed on as bounds.

Regarding `CCCCOc1ccc(NC(=O)O/N=C/c2ccc(F)cc2)cc1` [Example 5, 4-Fluorobenzaldehyde, O-[[(4-butoxyphenyl)amino]carbonyl]oxime], the side effects result is “No significant side effects were observed” in data set [1] (10 mg/kg i.v.); “strong sedation, reduced activity and splayed hindlimbs” in data set [1] (30 mg/kg i.v.); “No side effects were observed” in data set [3] (40 mg/kg, i.p.). In addition, the “acute thermal pain behavior” value in data set [1] (10 & 30 mg/kg, i.v. hand infusion, 15 min post injection, did not persist beyond this time) is reported as “significant reversal of acute thermal pain behavior”. The “inhibition of swelling (combined total paw volume)” value is “no efficacy” in data set [2] (20 mg/kg ip); 26% in data set [2] (40 mg/kg ip at -30 min and +2 hr relative to carrageenan, measured 3 hours post-injection). In addition, the “thermal escape latencies of drug treated animals” value in data set [3] (40 mg/kg, i.p., at 2:15 hr) is recorded as “comparable to baseline”. Further, the “development of thermal hyperalgesia” value in data set [3] (40 mg/kg, i.p., pretreatment before paw carrageenan) is “suppressed the development of thermal hyperalgesia”. In addition, in data set [3] (second injection 40 mg/kg i.p. at 3:00 hr, 3:00-4:00 hr), the “thermal escape responses after second injection” value is recorded as “maintained thermal escape responses at basal levels for another hour”. Besides, at human FAAH, the IC50 is less than 10 nM.
For the compound `C[C@@H]1C[C@H]2[C@@H]3CCC4=CC(=O)C=C[C@]4(C)[C@@]3(F)[C@@H](O)C[C@]2(C)[C@@]1(O)C(=O)CO` [dexamethasone, reference compound], the “inhibition of swelling (combined total paw volume)” value in data set [2] (1 mg/kg ip) is 70%.
